In patent US20240131173A1, “PROTACS WITH TRANSCRIPTION FACTOR TARGETING MOIETIES” (Beth Israel Deaconess Medical Center, Inc., priority 2021, published 2024):

Experiments:
[1] = molecular target: T1, VHL E3-PROTAC-p65 ternary complex (Homo sapiens, UniProt P40337+Q04206); test: GST pulldown assay of VHL E3 ligase complex and p65 with TF-PROTAC; type: binding; conditions: GST-VHL complex from E. coli, HEK293T lysate with Flag-p65, in vitro
T1 construct: made in house; host or cells: E. coli BL21(DE3) for the GST-VHL/Elongin B/C complex; HEK293T lysate for Flag-p65
T1 sequence (P40337 whole entry): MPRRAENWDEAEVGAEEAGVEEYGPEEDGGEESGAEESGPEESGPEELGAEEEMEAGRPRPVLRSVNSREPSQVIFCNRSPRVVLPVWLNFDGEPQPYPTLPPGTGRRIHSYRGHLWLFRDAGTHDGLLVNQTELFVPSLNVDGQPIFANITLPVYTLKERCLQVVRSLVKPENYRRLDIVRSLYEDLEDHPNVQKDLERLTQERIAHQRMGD
T1 sequence (Q15370 whole entry partner): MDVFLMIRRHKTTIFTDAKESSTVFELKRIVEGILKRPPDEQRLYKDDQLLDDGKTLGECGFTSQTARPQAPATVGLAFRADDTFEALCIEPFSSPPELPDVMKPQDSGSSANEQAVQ
T1 sequence (Q15369 whole entry partner): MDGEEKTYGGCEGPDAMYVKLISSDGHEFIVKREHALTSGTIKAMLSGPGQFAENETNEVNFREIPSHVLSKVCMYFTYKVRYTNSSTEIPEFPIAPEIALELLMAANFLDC
T1 sequence (Q04206 whole entry): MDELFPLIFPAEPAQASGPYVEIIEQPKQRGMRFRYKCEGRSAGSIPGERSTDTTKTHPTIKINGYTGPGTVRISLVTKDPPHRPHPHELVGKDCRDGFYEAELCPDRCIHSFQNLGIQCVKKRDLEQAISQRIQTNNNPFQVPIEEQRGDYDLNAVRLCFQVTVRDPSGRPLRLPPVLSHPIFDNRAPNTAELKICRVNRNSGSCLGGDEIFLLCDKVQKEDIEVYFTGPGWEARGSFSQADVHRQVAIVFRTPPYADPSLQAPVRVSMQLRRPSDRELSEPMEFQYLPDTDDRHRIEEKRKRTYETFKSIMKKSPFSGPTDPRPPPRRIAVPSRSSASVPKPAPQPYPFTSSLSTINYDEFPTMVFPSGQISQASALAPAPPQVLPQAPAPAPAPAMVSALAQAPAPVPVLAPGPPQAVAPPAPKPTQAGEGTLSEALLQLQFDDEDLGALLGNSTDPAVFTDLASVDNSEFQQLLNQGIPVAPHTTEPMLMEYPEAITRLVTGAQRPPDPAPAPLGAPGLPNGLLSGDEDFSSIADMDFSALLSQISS
Text: Furthermore, dNF-κB is capable of recruiting VHL E3 ubiquitin ligase to POI, NF-κB. […] However, dNF-κB obtained in current stage could not efficiently promote the degradation of p65 in cells, which prompted further optimization of the length of linker between the VHL ligand and DNA oligomer moieties for achieving efficient destruction of NF-κB in cells.
pGEX-GST-VHL/ElonginB construct was kindly gift from Dr. William Kaelin, Jr. at Dana-Farber Cancer Institute, Harvard Medical School. pGEX-GST-Elongin C plasmid was generated by subcloning Elongin C CDS into the BamHI and Xhol sites of pGEX-4T1-GST vector. The GST-VHL/ElonginB/C complex was purified as described 43. Briefly, BL21(DE3) E. coli was cotransfected with pGEX-GST-VHL/ElonginB and pGEX-GSTElonginC plasmid. Protein expression was induced by 100 μM isopropyl beta-D-thiogalactopyranoside (IPTG, Fisher Scientific) at 18° C.overnight. Then, the bacterial culture was centrifuged and sonicated in PBS buffer with protease inhibitor cocktail. Protein lysates were further purified with glutathione-Sepharose beads (GE17-0756-05) and washed with PBS for 5 times.
Glutathione-Sepharose beads loaded with GST-VHL E3 ligase complex were incubated at 4° C. with cell lysate derived from HEK293T cells that ectopic transfected with individual transfection factor. After incubation for 3 hours, TF-PROTACs were added into the mixture for another 2 hours, followed by wash with NETN buffer for 3 times. The pulldown products were further separated by 10% SDS-PAGE and blotted for indicated proteins.

[2] = molecular target: T2, p65 (Homo sapiens, UniProt Q04206); test: In vivo ubiquitination assay of p65 (Ni-NTA pulldown); type: cell-based; conditions: HEK293T cells, Flag-p65 24 hours, then dNF-κB 12 hours
Procedure: Denatured in vivo ubiquitination assays were performed as previously described 41. Briefly, HEK293T cells were firstly transfected with Flag-p65 or HA-E2F1 for 24 hours, followed by additional transfection of individual TF-PROTAC for another 12 hours. Before been harvested, HEK293T cells were treated with 30 μM of MG132 for 4 hours. After having been harvested in denatured buffer A (6 M guanidine-HCI, pH 8.0, 0.1 M Na2HPO4/NaH2PO4, and 10 mM imidazole) and sonication for 10 seconds, cell lysis was incubation with Ni-nitrilotriacetic acid (NTA) matrices under rotation for 3 hours at room temperature. The pulldown products were washed sequentially twice in buffer A, twice in buffer A/TI mixture (buffer A, buffer TI=1:3, v/v), and once in buffer TI (25 mM tris-HCl, pH 6.8, and 20 mM imidazole). The ubiquitinated proteins were finally separated by 7% SDS-PAGE and blotted with individual antibody.
Target sequence in this assay (Q04206 whole entry): as above

[3] = tested on: HeLa cells; test: Cell growth curve assay (cell number); type: cell-based, human; conditions: 10 ug/mL
Procedure: (§1) For cell growth curve assay, HeLa cells (10, 000/well) in 12-well plate were transfected with individual TF-PROTAC, then the cells were trypsined and the cell number were counted at indicated time. For the clonal formation assay, HeLa cells were transfected with individual TF-PROTAC for 12 hours, followed by further plated into 6-well plate (1,000/well). Three weeks later, the cells were fixed in fixation buffer (acetic acid: methanol=1:7) and stained with 0.4% crystal violet in 20% ethanol. Then clonal number were quantified by Image J software. As various changes can be made in the above-described subject matter without departing from the scope and spirit of the present disclsoure, it is intended that all subject matter contained in the above description, or defined in the appended claims, be interpreted as descriptive and illustrative. Many modifications and variations of the present disclosure are possible in light of the above teachings. Accordingly, the present description is intended to embrace all such alternatives, modifications and variances which fall within the scope of the appended claims.

[4] = tested on: HeLa cells; test: Clonal (colony) formation assay; type: cell-based, human; conditions: HeLa cells
Procedure: as §1

[5] = molecular target: T2, p65; test: Western blot of p65 in HeLa cells transfected with TF-PROTAC; type: cell-based; set-up: endogenous in cells; host or cells: HeLa; conditions: 10 uM MG132
Procedure: Human embryonic kidney 293T (HEK293T) and HeLa cells were maintained in Dulbecco's Modified Eagle's Medium (DMEM) containing 10% fetal bovine serum (FBS), 100 Units/mL of penicillin and 100 μg/mL streptomycin. For ectopic expression of transcription factors, Flag-p65 and HA-E2F1 were transfected into HEK293T cells and harvested for lysis 48 hours after transfection. For TF-PROTACs treatment, HeLa cells in 12-well plate were transfected with individual TF-PROTAC for 12 hours, followed by harvest for western blot analysis. […] For depletion of endogenous VHL E3 ligase, two sgRNA for VHL E3 ligase were synthesized and inserted into lenti-CRISPR-V2 construct 40. The sgVHL lentivirus were generated in HEK293T cells as previously described 41-42 for infection of HeLa cells overnight, followed by selection with puromycin for 72 h.
Cells were lysed in EBC buffer supplemented with protease inhibitors cocktail and phosphatase inhibitors, and the protein concentrations were measured as described above. The lysates (40 ug protein) were then resolved by 10% SDS-PAGE at 130 V for 80 min and immunoblotted with indicated antibodies at 4° C. overnight, washed 4 times with Tris-buffered saline with 0.1% Tween-20 (TBST), incubated with secondary antibody for 1 hour at room temperature, and then washed 4 times with TBST buffer. […]
Target sequence in this assay (Q04206 whole entry): as above
Target sequence in this assay (P19838 1-433 limits assumed, further chain): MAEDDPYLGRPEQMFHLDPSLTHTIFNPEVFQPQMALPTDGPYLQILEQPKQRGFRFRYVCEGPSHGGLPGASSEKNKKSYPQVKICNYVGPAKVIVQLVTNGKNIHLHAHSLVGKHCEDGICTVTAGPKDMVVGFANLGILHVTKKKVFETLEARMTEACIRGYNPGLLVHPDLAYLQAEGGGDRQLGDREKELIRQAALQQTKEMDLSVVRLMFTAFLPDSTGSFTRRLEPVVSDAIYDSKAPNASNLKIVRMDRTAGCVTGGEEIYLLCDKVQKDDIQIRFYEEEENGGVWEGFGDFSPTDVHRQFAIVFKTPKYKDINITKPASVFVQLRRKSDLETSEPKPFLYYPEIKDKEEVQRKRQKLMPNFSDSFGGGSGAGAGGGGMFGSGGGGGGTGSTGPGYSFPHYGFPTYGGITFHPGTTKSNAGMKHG

dNF-κB #16 (TGGGGACTTTCCAGTTTCTGGAAAGTCCCCA; decoy; VHL ligand conjugate via PEG3 linker, further chemistry not given here)
VHL E3 ligase-p65 binding (ternary complex) induced by PROTAC [1]: recruited the binding between the VHL E3 ubiquitin ligase and p65 in vitro
ubiquitination of p65 in cells [2]: lead to the ubiquitination of p65 in cells
proliferation of HeLa cells (cell number) [3]: repressed the proliferation of HeLa cells
tumorigenesis ability (colony formation) [4]: inhibited
degradation of endogenous p65 under proteasome inhibitor MG132 [5]: blocked the degradation of endogenous p65
